Measured values reported in patent US20190133997A1, “ARTEMISININ ANALOG, AND USE, METHOD, AND COMPOSITION FOR PROMOTING LIPID CATABOLISM AND IMPROVING SUGAR METABOLISM” (FUDAN UNIVERSITY, priority 2016, published 2019).

Tests used:
[1] = system: obese mice induced by high-fat diet; experiment: Intraperitoneal artemether, fatty liver in obese mice induced by high-fat diet (HE staining); assay type: in vivo, Male C57BL/6J mice; conditions: intraperitoneal 20 mg/kg twice a week, eight weeks
Protocol: (§1) The mice were breeded in the SPF animal laboratory of the Laboratory Animal Center of Fudan University at a room temperature of 21° C.-23° C. with a 12-hour light/dark cycle. […] When the mice were grown to 8-week old, they were randomly divided into a control group and an administration group, with 8 mice in each group. While the mice were fed with a high-fat diet, artemether was injected intraperitoneally. Artemether for intraperitoneal injection was stored at 4° C. in coconut oil at a storage concentration of 6 mg/ml (20 mMol/L), and protected from light. Mice in administration group were injected with artemether at a dose of 20 mg/kg weight. Administration was twice a week for eight weeks. The mice were sacrificed by cervical dislocation, and liver tissues of mice were removed and fixed. The histological analysis for liver was commissioned by Shanghai Saige Biotech Co., Ltd., and the histological analysis process included tissue fixation, paraffin embedding, sectioning and HE staining.

high fat-fed mice [2] = experiment: Intraperitoneal artemether, weight gain induced by high-fat diet; assay type: in vivo, Male C57BL/6J mice; conditions: intraperitoneal 20 mg/kg twice a week, eight weeks
Protocol: as §1, with “weeks,” for “weeks. The mice were sacrificed by cervical dislocation, and liver tissues of mice were removed and fixed. The histological analysis for liver was commissioned by Shanghai Saige Biotech Co., Ltd.,”, “weight of the mice was recorded weekly.” for “histological analysis process included tissue fixation, paraffin embedding, sectioning and HE staining.”

[3] = rodent models, high concentrations; no clear evidence of dose and timing; cited from earlier work
BMP4-directed C3H10T1/2 = experiment: Artemether on BMP4-directed C3H10T1/2 differentiation (morphology, Western blot, MitoTracker Green); assay type: cell-based
Protocol: 7.5×10^5 C3H10T1/2 were seeded in a 3.5 cm cell culture dish, and cultured for 3-5 days in a maintenance medium. On the next day of seeding, BMP4 (at a final concentration of 20 ng/ml) was added to the medium to allow the cells to proliferate to contact inhibition. Two days after the contact inhibition was reached, the medium was changed to induced differentiation medium, and the induced mixture (0.5 mMol/L Mix, 1 μMol/L Dex, 1 ng/ml insulin, 100 nMol/L indometacin, 1 nM T3) was added at the same time. This day was defined as Day 0 of differentiation. After 2 days of induction, fresh induced differentiation medium was replaced, and 1 ng/ml insulin and 1 nMol/L T3 were added. After another 2 days of culture, the fresh medium was replaced every other day until the culture was differentiated to Day 8 at which time the cells were mature. At this time, the differentiated and mature cells were white adipocytes.
7.5×10^5 C3H10T1/2 were seeded in a 3.5 cm cell culture dish, and cultured for 3-5 days in a maintenance medium. On the next day of seeding, BMP7 (at a final concentration of 100 ng/ml) was added to the medium to allow the cells to proliferate to contact inhibition. Two days after the contact inhibition was reached, the medium was changed to induced differentiation medium, and the induced mixture (0.5 mM Mix, 1 μM Dex, 1 ng/ml insulin, 100 nM indometacin, 1 nM T3) was added at the same time. This day was defined as Day 0 of differentiation. After 2 days of induction, fresh induced differentiation medium was replaced, and 1 ng/ml insulin and 1 nM T3 were added. After another 2 days of culture, the fresh medium was replaced every other day until the culture was differentiated to Day 8 at which time the cells were mature. At this time, the cells differentiated to mature were brown adipocytes.
On Day 0 of differentiation, that is, when the induced differentiation mixture was added, the compound was added to the medium at a storage concentration of 10 mMol/L, and the final concentrations were […], respectively. When the fresh medium was replaced, the corresponding compound was supplemented, and the compound was always with the cells until the cells differentiated to mature.
C3H10T1/2 differentiated to mature was induced in a 3.5 cm culture dish, with the method of differentiation referring to Method 2.4.1. 300 μl Trizol was added to fully lyse the cells, and the lysate was transferred into a 1.5 ml centrifuge tube and heated at 100° C. for 10 min. The lysate was centrifuged at 13000 g for 10 min at 4° C., the lipid in the upper layer was removed, and the clarified lysate in the middle layer was transferred into a new centrifuge tube. 2.5 μl lysate was taken and quantified by BCA method, and 200 μl lysate was mixed with 50 μl loading buffer, heated at 100° C. for 10 min, and stored at −20° C. until use.
[…] C3HOT1/2 protein was loaded onto 10% polyacrylamide gel, and electrophoresis was carried out, with electrophoresis being carried out on base gel at 80V, and on separating gel at 100V, until the target band was separated. The protein was transferred to a PVDF membrane in an ice bath at 100 V for 100 min. After the transfer was completed, it was blocked for 1 hr in 5% skim milk prepared with TBST (TBS buffer+0.5% Tween), and incubated with specific antibodies overnight at 4° C. The next day, the PVDF membrane was washed three times with TBST at room temperature for 10 min, incubated with the corresponding secondary antibody at room temperature for 1 hr, then washed three times with TBST at the same condition as that of primary antibody, incubated with chemiluminescent reagent at room temperature for 1 min, detected with ImageQuant LAS4000 Mini Automatic chemiluminescence apparatus and exposed, and the results were recorded.
C3H10T1/2 differentiated to mature was induced in a 3.5 cm culture dish. The medium was removed and 1 ml PBS was added. […]

high fat-fed mice [4] = experiment: Subcutaneous artemether, fatty liver induced by high-fat diet (HE staining); assay type: in vivo, Male C57BL/6J mice; conditions: subcutaneous injection, eight weeks, control: obvious lipid accumulation
Protocol: The mice were breeded in the SPF animal laboratory of the Laboratory Animal Center of Fudan University at a room temperature of 21° C.-23° C. with a 12-hour light/dark cycle. […] When the mice were grown to 8-week old, they were randomly divided into a control group and an administration group, with 8 mice in each group. While the mice were fed with a high-fat diet, artemether was injected subcutaneously. Artemether was diluted in PBS at a concentration of […], and injected into bilateral inguinal region, with 200 μl being injected into each side. Mice in control group were injected with the same volume of PBS. Administration was continued for eight weeks. The mice were sacrificed by cervical dislocation, and liver tissues of mice were removed. The histological analysis including tissue fixation, paraffin embedding, sectioning and HE staining was commissioned by Shanghai Saige Biotech Co., Ltd.

[5] = artemether 5, 10, 15 Mol/L, Western blot, β-actin reference, concentration-dependent tendency

With CO[C@H]1O[C@@H]2O[C@@]3(C)CC[C@H]4[C@H](C)CC[C@@H]([C@H]1C)[C@@]24OO3 [artemether] the “morphology of the liver cells” value [1] was “almost normal”, the “lipid in the liver (fatty liver)” value ([1]; control: obvious lipid accumulation) was “only a small amount of lipid” and the “weight gain of mice” value (high fat-fed mice [2]) was “significantly slower than that of mice in control group”. The weight of mice (high fat-fed mice [2]; statistically different after three weeks) was “significantly lower than that of mice in control group”, the anorexia nervosa [3] was “would cause anorexia nervosa” and the “protein level of PGC1α” value (BMP4-directed C3H10T1/2; [5]) was “increased”. For the same compound, the “protein level of PRDM16” value (BMP4-directed C3H10T1/2; [5]) was “increased”, the “protein level of UCP1” value (BMP4-directed C3H10T1/2; [5]) was “increased” and the “protein level of CytoC” value (BMP4-directed C3H10T1/2; artemether 5, 10, 15 μMol/L, Western blot, β-actin reference, concentration-dependent tendency) was “increased”. The “mitochondrial biosynthesis (MitoTracker Green)” value (BMP4-directed C3H10T1/2; artemether 15 μMol/L) was “significantly enhanced”, the “cell morphology of BMP4-directed C3H10T1/2” value (BMP4-directed C3H10T1/2; artemether 15 μMol/L during differentiation, similar to BMP7-directed cell morphology) was “exhibited brown fat-like characteristics” and the “lipid in the liver (fatty liver)” value (high fat-fed mice [4]) was “only a small amount of lipid”.
